# Tested on: acetylation level of H3K23 in ZR-75-1 cells
# Test: Effect on histone acetilation in ER-positive breast cancer cells (Western blotting)
# Format: cell-based, human
# Conditions: 5 days of incubation, from 5 μM, Western blot (FIG. 1)
# Procedure: Test Example 4: Assay for Effects of Compounds on Histone Acetylation in Estrogen Receptor-Positive Breast Cancer Cells
# Assay Method: Western Blotting Method (Immunoblotting Assay)
# The effects of the test compounds on the acetylation level of H3K23 in ZR-75-1 cells (Nanjing Cobioer, CBP60402) were assayed. • 1. On day 1, the cells were plated at 400,000 cells/well (2 mL/well) and cultured overnight in an incubator at 37° C. with 5% CO2. • 2. On day 2, compounds were added starting at 5 μM, with a 10-fold serial dilution across a total of 3 concentration gradients, and DMSO was added to the negative control wells. • 3. On day 6, after 5 days of incubation with compounds, protein samples were collected: An ice box, pre-cooled PBS (4° C.), a cell lysis buffer RIPA (Beyotime, P0013B), and a protease inhibitor (100x) (Thermo Scientific™, 87786) were prepared. Then, 120 μL of the cell lysis buffer was added to each well. The mixture was placed on ice for about 15 min. […] Protein quantification by BCA method (Beyotime, P0009) • Standards (8 concentrations) were prepared, and the samples and the standards were added to a 96-well plate. […] The absorbance was then measured using a microplate reader. […]
# The next day, the PVDF membrane was taken out and washed (8 min×3) with TBST (with 0.5% Tween 20). […] After the washing, a luminescence solution (Tanon, 180-506) was added for exposure. […]
row,Structure (SMILES),acetylation level of H3K23
1,"COc1ccc2c(c1S(=O)(=O)Nc1noc3cc(Cn4cccn4)c(F)c(OC)c13)OCCO2 [Compound 28, N-(6-((1H-Pyrazol-1-yl)methyl)-5-fluoro-4-methoxybenzo[d]isoxazol-3-yl)-6-methoxy-2,3-dihydrobenzo[b][1,4]dioxine-5-sulfonamide]",significantly reduce the acetylation level of H3K23
2,"COc1ccccc1S(=O)(=O)Nc1noc2cc(Cn3cccn3)cc(OC)c12 [PF-8144, reference compound]",significantly reduce the acetylation level of H3K23
